From the supplement of paper PMC10307832

Tests used:
Assay in all cases: relative viability (nuclei count vs DMSO), 5 days (fraction); higher = more cells survive
Docetaxel = compound: CC(=O)O[C@@]12CO[C@@H]1C[C@H](O)[C@@]1(C)C(=O)[C@H](O)C3=C(C)[C@@H](OC(=O)[C@H](O)[C@@H](NC(=O)OC(C)(C)C)c4ccccc4)C[C@@](O)([C@@H](OC(=O)c4ccccc4)[C@H]21)C3(C)C [Docetaxel]
Method in brief: (§1)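 Cells of lung cancer lines were placed in 1536-well plates and kept overnight at 37 °C. Pinning then delivered five library-drug doses (not always all listed), spaced by √10, onto plates anchored with vehicle, and the cells were left 5 days without changing medium. One step fixed, permeabilised and stained them with Hoechst, and MetaXpress counted nuclei in 4× images. Viability, as a median over plates, is treated-well nuclei divided by vehicle-well nuclei, with acceptance only at control CV below 25% and at least one doubling.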

JQ1 = compound: Cc1sc2c(c1C)C(c1ccc(Cl)cc1)=N[C@@H](CC(=O)OC(C)(C)C)c1nnc(C)n1-2 [JQ1]
Method in brief: as §1

CPI-613 = compound: O=C(O)CCCCC(CCSCc1ccccc1)SCc1ccccc1 [CPI-613]
Method in brief: as §1

Pimozide = compound: O=c1[nH]c2ccccc2n1C1CCN(CCCC(c2ccc(F)cc2)c2ccc(F)cc2)CC1 [Pimozide]
Method in brief: as §1

Tivozanib = compound: COc1cc2nccc(Oc3ccc(NC(=O)Nc4cc(C)on4)c(Cl)c3)c2cc1OC [Tivozanib]
Method in brief: as §1

Cytarabine = compound: Nc1ccn([C@@H]2O[C@H](CO)[C@@H](O)[C@@H]2O)c(=O)n1 [Cytarabine]
Method in brief: as §1

[1] = compound: Cc1cnc(-c2cnc(NCCNc3ccc(C#N)cn3)nc2-c2ccc(Cl)cc2Cl)[nH]1
Method in brief: as §1

| Cell Line | relative viability (Docetaxel; 0.0002 µM) | relative viability (Docetaxel; 0.000632 µM) | relative viability (Docetaxel; 0.002 µM) | relative viability (Docetaxel; 0.006325 µM) | relative viability (Docetaxel; 0.02 µM) | relative viability (JQ1; 0.04 µM) | relative viability (JQ1; 0.1265 µM) | relative viability (JQ1; 0.4 µM) | relative viability (JQ1; 1.265 µM) | relative viability (JQ1; 4 µM) | relative viability (CPI-613; 5 µM) | relative viability (CPI-613; 15.81 µM) | relative viability (CPI-613; 50 µM) | relative viability (CPI-613; 158.11 µM) | relative viability (CPI-613; 500 µM) | relative viability (Pimozide; 0.08 µM) | relative viability (Pimozide; 0.253 µM) | relative viability (Pimozide; 0.8 µM) | relative viability (Pimozide; 2.53 µM) | relative viability (Pimozide; 8 µM) | relative viability (Tivozanib; 0.005 µM) | relative viability (Tivozanib; 0.01581 µM) | relative viability (Tivozanib; 0.05 µM) | relative viability (Tivozanib; 0.1581 µM) | relative viability (Tivozanib; 0.5 µM) | relative viability (Cytarabine; 0.005 µM) | relative viability (Cytarabine; 0.01581 µM) | relative viability (Cytarabine; 0.05 µM) | relative viability (Cytarabine; 0.1581 µM) | relative viability (Cytarabine; 0.5 µM) | relative viability ([1]; 0.08 µM) | relative viability ([1]; 0.253 µM) | relative viability ([1]; 0.8 µM) | relative viability ([1]; 2.53 µM) |
| --- | --- | --- | --- | --- | --- | --- | --- | --- | --- | --- | --- | --- | --- | --- | --- | --- | --- | --- | --- | --- | --- | --- | --- | --- | --- | --- | --- | --- | --- | --- | --- | --- | --- | --- |
| NCI-H1650 | 0.705 | 0.37 | 0.301 | 0.205 | 0.146 | 0.808 | 0.68 | 0.578 | 0.217 | 0.21 | 0.877 | 0.776 | 0.942 | 0.137 | 0.0508 | 0.719 | 0.893 | 0.883 | 0.887 | 0.809 | 0.786 | 0.964 | 0.941 | 0.946 | 0.779 | 0.793 | 0.633 | 0.514 | 0.224 | 0.225 | 1 | 0.812 | 0.904 | 0.761 |
| HCC-78 | 0.91 | 0.784 | 0.48 | 0.482 | 0.382 | 0.936 | 0.853 | 0.843 | 0.601 | 0.434 | 0.875 | 0.835 | 0.994 | 0.921 | 0.839 | 0.859 |  | 0.828 | 0.837 | 0.932 | 0.85 | 0.942 | 0.955 | 0.732 | 0.757 | 1.09 | 0.844 | 0.593 | 0.444 | 0.339 | 0.999 | 0.807 | 0.936 | 0.928 |
| NCI-H2405 | 0.982 | 0.879 | 0.633 | 0.453 | 0.339 | 1.03 | 0.598 | 0.921 | 0.711 | 0.499 | 0.996 | 0.909 | 0.939 | 0.931 | 0.78 | 0.964 | 0.937 | 1.03 | 0.992 | 0.96 | 0.933 | 1.02 | 1.04 | 0.89 | 0.772 | 0.927 | 0.712 | 0.57 | 0.512 | 0.384 | 1.01 | 0.938 | 0.948 | 0.736 |
| NCI-H1648 | 0.861 | 0.925 | 0.494 | 0.269 | 0.179 | 0.89 | 0.753 | 0.434 | 0.294 | 0.184 | 0.818 | 0.768 | 1.11 | 0.393 | 0.577 | 1.01 | 0.641 | 0.822 | 0.8 | 0.972 | 0.838 | 0.918 | 1 | 0.886 | 0.716 | 0.69 | 0.734 | 0.813 | 0.443 | 0.611 | 1.11 | 0.801 | 0.951 | 0.76 |
| COR-L 105 | 0.86 | 0.811 | 0.536 | 0.418 | 0.302 | 0.684 | 0.607 | 0.38 | 0.352 | 0.33 | 0.853 | 0.872 | 0.839 | 0.364 | 0.29 |  | 1.1 | 0.907 | 0.862 | 0.838 | 0.901 | 0.914 | 0.93 | 0.843 | 0.859 | 0.905 | 0.81 | 0.627 | 0.448 | 0.386 | 0.991 | 0.887 | 0.868 | 0.563 |
| EMC-BAC-2 | 0.905 | 0.736 | 0.483 | 0.304 | 0.268 | 0.922 | 0.667 | 0.842 | 0.519 | 0.48 | 0.973 | 0.875 | 0.982 | 0.782 | 0.189 | 0.969 | 0.933 | 0.884 | 0.933 | 0.955 | 0.935 | 1.06 | 1 | 0.752 | 0.792 | 1.04 | 0.866 | 0.492 | 0.349 | 0.257 | 1.02 | 0.96 | 0.923 | 0.897 |
| NCI-H2342 | 1.04 | 0.818 | 0.692 | 0.619 | 0.484 | 1.17 | 0.775 | 0.993 | 0.943 | 0.756 | 0.929 | 1.01 | 1.07 | 0.97 | 1.07 | 1.01 | 0.876 | 0.912 | 0.863 | 0.995 | 0.88 | 0.948 | 0.886 |  | 0.987 | 0.909 | 0.878 | 0.793 | 0.744 | 0.608 | 1.13 | 0.794 | 0.952 | 0.903 |
| SW 900 | 0.69 | 0.422 | 0.292 | 0.232 | 0.174 | 0.87 | 0.766 | 0.557 | 0.26 | 0.209 | 0.837 | 0.642 | 1.02 | 0.601 | 0.0301 | 0.916 | 0.84 | 0.468 | 0.811 | 0.742 | 0.894 | 0.855 | 0.844 | 0.4 | 0.791 | 0.725 | 0.674 | 0.564 | 0.26 | 0.204 | 0.902 | 0.803 | 0.759 | 0.729 |
| NCI-H650 | 0.871 | 0.456 | 0.343 | 0.257 | 0.187 | 0.946 | 0.628 | 0.78 | 0.365 | 0.298 | 0.937 | 0.803 | 1.05 | 0.621 | 0.716 | 0.969 | 0.914 | 0.839 | 0.997 | 1.12 | 0.86 | 0.979 | 0.935 | 0.607 | 0.706 | 0.893 | 0.581 | 0.328 | 0.234 | 0.205 | 1.03 | 1.01 | 0.797 | 0.783 |
| NCI-H460 | 0.949 | 0.806 | 0.288 | 0.0373 | 0.0295 | 0.97 | 0.617 | 0.593 | 0.353 | 0.197 | 0.973 | 0.97 | 1 | 0.66 | 0.515 | 1.01 | 0.95 | 0.964 | 0.913 | 0.922 | 0.985 | 1.06 | 0.989 | 1.03 | 0.965 | 0.962 | 0.894 | 0.256 | 0.0513 | 0.0345 | 1 | 0.911 | 0.981 | 0.883 |
